Reference: US10975434B2, “Growth differentiation factor 15 as biomarker for metformin” (Sanofi-Aventis Deutschland GmbH, priority 2015, dated 2021)

What was measured:
[1] = tested on: GDF15 mRNA; experiment: GDF15 messenger RNA expression in primary hepatocytes (BeadChip); format: cell-based, mouse; conditions: primary C57Bl6 hepatocytes, metformin 0.5 mM versus vehicle; P=0.003
Procedure: To further understand the link between metformin and GDF15 levels, in vitro experiments were conducted using mouse hepatocytes. Primary hepatocytes from 4 different C57Bl6 wild-type male mice were isolated by collagenase digestion as previously described^14. Briefly, cells were plated on 12-well collagen-coated plates overnight in William's Media E containing 10% fetal bovine serum (FBS) and 1% antibiotic-antimycotic. […] Media was then snap frozen and stored at −80° C. for later analyses, and cells were harvested in cell lysis buffer for assessment of total protein or RNA.
GDF15 release into the media was measured using a commercially available ELISA kit (R&D Systems, Minneapolis, Minn.) and expressed per mg of hepatocyte protein. Total RNA was isolated using the Trizol plus RNA Purification kit (Ambion), concentrated with Speedvac (Thermo), and then quantified using Quant-IT RiboGreen (LifeTech). Total RNA was then reverse transcribed and amplified using the Illumina TotalPrep RNA Amplification Kit (LifeTech) according to the manufacturer's protocol. Samples were hybridized to the Illumina Mouse Ref-8 v2.0 complementary DNA BeadChip and scanned on the iScan System (Illumina). The raw sample probe profile and control probe profile were exported from GenomeStudio version 1.9.0 (Illumina). […]

[2] = tested on: GDF15; experiment: Acute metformin injection, serum GDF15 in C57bl6 mice; format: in vivo, mouse; conditions: 250 mg/kg intraperitoneally, male C57bl6 mice, versus saline; P<0.05
Procedure: (§1) For the acute experiments, 12 (i.e. 6 per group) 20-week old male C57bl6 mice (Jackson Laboratories) were fasted for 12 hours then allowed to feed ad libitum for 2 hours prior to injection with either metformin (250 mg/kg in 10 μl/g body weight saline) or vehicle (10 μl/g body weight saline) intraperitoneally. Blood was collected 90 minutes later by tail vein bleed, and serum was assayed for GDF15 levels using the Elisa described above (R&D Systems, Minneapolis, Minn.). […] Fed bloods were sampled by tail vein bleed from the animals at the end of the treatment period and serum GDF15 measured as above. Animal experiments were all approved by the McMaster University Animal Ethics Committee.

[3] = tested on: GDF15; experiment: Multiplex serum biomarker analysis: GDF15 level versus metformin use and dose; format: in vivo, human; conditions: serum of people taking varying doses of metformin; FIG. 2
Procedure: At Myriad RBM Inc., the samples were thawed at room temperature (RT), vortexed, spun at 13,000 g for 5 minutes for clarification, and an aliquot was removed into a master microtiter plate for analysis. Using automated pipetting, an aliquot of each sample was introduced into one of the capture microsphere multiplexes of the Human DiscoveryMAP. The mixtures of sample and capture microspheres were thoroughly mixed and incubated at RT for 1 hour. Multiplexed cocktails of biotinylated reporter antibodies for each multiplex (such as GDF-15), were then added robotically, and after thorough mixing, were incubated for an additional hour at RT. Multiplexes were developed using an excess of streptavidinphycoerythrin solution which was thoroughly mixed into each multiplex and incubated for 1 hour at RT. […] Testing results were determined first for the high, medium and low controls for each multiplex to ensure proper assay performance. Unknown values for each of the analytes localized in a specific multiplex were determined using 4 and 5 parameter, weighted and non-weighted curve fitting algorithms included in the data analysis package^40. […]
The 237 available biomarkers were analyzed to identify those that were statistically independent determinants of the use of metformin using unadjusted logistic regression models and forward selection. […]

[4] = Outcomes during follow-up of biomarker study participants by baseline metformin use
[5] = tested on: GDF15; experiment: Chronic metformin in high-fat diet, serum GDF15 in obese C57bl6 mice; format: in vivo, mouse; conditions: obese insulin-resistant mice, 2.5 g/kg metformin in 60% high-fat diet for 6 weeks, versus untreated controls; P<0.05
Procedure: as §1

[6] = share of the 2317 participants on metformin at baseline

Compound: CN(C)C(=N)NC(=N)N [Metformin, metformin]
- increase in GDF15 mRNA [1]: 1.6 fold
- 90 minute serum levels of GDF 15 [2]: significantly increased
- mean concentration of GDF15 by metformin dose [3]: rose with progressively higher doses
- Expanded Composite CV Outcome during follow-up, number of participants ([4]; participants on metformin at baseline, N 2317, P 0.008 vs no metformin): 622
- Death during follow-up, number of participants ([4]; participants on metformin at baseline, N 2317, P 0.01 vs no metformin): 331
- Composite CV Outcome during follow-up, number of participants ([4]; participants on metformin at baseline, N 2317, median follow-up 6.2 years, P 0.007 vs no metformin): 346
- Composite CV Outcome during follow-up, value in parentheses [4, 6]: (14.9)
- Death during follow-up, value in parentheses [4, 6]: (14.3)
- Expanded Composite CV Outcome during follow-up, value in parentheses [4, 6]: (26.8)
- serum GDF 15 levels after chronic treatment [5]: significantly increased
